Results taken from ChEMBL document CHEMBL1201862, “PubChem BioAssay data set” (2004).
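A five-concentration, 48-hour dose response in 96-well plates underlies each endpoint, interpolated linearly between surrounding concentrations. Here, GI50 denotes the concentration required for 50% inhibition of growth.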 Active and inactive are the calls of the source. Cut-off read from the data, not from the text of the source: active = GI50 up to about 1.1 µM and inactive = higher.

Legend:
Assay in all cases: NCI-60 cell line screen, 48 h
CAKI-1 = test system: CAKI-1
UACC-257 = test system: UACC-257
SNB-19 = test system: SNB-19
M19-MEL = test system: M19-MEL
U-251 = test system: U-251
UACC-62 = test system: UACC-62
SK-MEL-5 = test system: SK-MEL-5
OVCAR-4 = test system: OVCAR-4
HL-60 = test system: HL-60
A549 = test system: A549
SF-539 = test system: SF-539
EKVX = test system: EKVX
IGROV-1 = test system: IGROV-1
OVCAR-3 = test system: OVCAR-3
MOLT-4 = test system: MOLT-4
UO-31 = test system: UO-31
A498 = test system: A498
RPMI-8226 = test system: RPMI-8226

Measured: GI50

NNC(=S)N/N=C(/C(=O)Nc1cc(Cl)ccc1Cl)C1C(=O)Nc2ccccc2[S+]1[O-] (stereo not given)
inactive: CAKI-1 > 100 µM | UACC-257 > 100 µM | SNB-19 > 100 µM | M19-MEL > 100 µM | U-251 > 100 µM | UACC-62 > 100 µM | SK-MEL-5 > 100 µM | OVCAR-4 > 100 µM | HL-60 > 100 µM | A549 73.3 µM | SF-539 > 100 µM | EKVX 55.1 µM | IGROV-1 > 100 µM | OVCAR-3 > 100 µM | MOLT-4 78.9 µM | UO-31 > 100 µM | A498 > 100 µM

CCCCCCCc1cc(OC(=O)c2c(C)cc(OC)cc2O)cc(O)c1C(=O)O
inactive: CAKI-1 22.5 µM | UACC-257 30.4 µM | SNB-19 26.4 µM | M19-MEL 23.6 µM | U-251 17.9 µM | UACC-62 21 µM | SK-MEL-5 21.6 µM | RPMI-8226 22.6 µM | OVCAR-4 28.1 µM | HL-60 26.5 µM | A549 29.9 µM | SF-539 17.6 µM | EKVX 25.2 µM | IGROV-1 22.7 µM | OVCAR-3 14.6 µM | MOLT-4 27.7 µM | UO-31 16.9 µM | A498 19.1 µM

Cc1c(CCl)c(=O)oc2c(C)c3occ(CCl)c(=O)c3cc12
inactive: UACC-257 > 100 µM | SNB-19 25.8 µM | M19-MEL 16.2 µM | U-251 > 100 µM | UACC-62 16.3 µM | SK-MEL-5 > 100 µM | RPMI-8226 8.69 µM | HL-60 4.72 µM | A549 > 100 µM | SF-539 21 µM | EKVX > 100 µM | IGROV-1 20.3 µM | OVCAR-3 > 100 µM | MOLT-4 6.35 µM | UO-31 17.5 µM | A498 > 100 µM

CCN1CCC(O)(c2ccc(OC)cc2)C(C(=O)c2ccc(OC)cc2)C1 (stereo not given)
inactive: CAKI-1 17.2 µM | UACC-257 20.6 µM | SNB-19 28.6 µM | M19-MEL 18.3 µM | U-251 16.7 µM | UACC-62 16.9 µM | SK-MEL-5 15.3 µM | RPMI-8226 4.25 µM | OVCAR-4 17.7 µM | HL-60 15.9 µM | A549 18.1 µM | SF-539 17 µM | EKVX 30.5 µM | IGROV-1 > 100 µM | OVCAR-3 17.6 µM | MOLT-4 17.5 µM | UO-31 18.4 µM | A498 > 10 µM

C[C@H]1CCC2C(CN3CCCCC3)C(=O)OC2[C@]2(C)C(=O)CC(N3CCCCC3)C12O (stereo not given in full)
inactive: CAKI-1 15.7 µM | UACC-257 3.1 µM | SNB-19 20 µM | M19-MEL 5.3 µM | U-251 5.53 µM | UACC-62 2.36 µM | SK-MEL-5 4.73 µM | RPMI-8226 2.71 µM | HL-60 1.56 µM | A549 28.2 µM | SF-539 2.26 µM | EKVX 4 µM | IGROV-1 18.8 µM | OVCAR-3 4.48 µM | MOLT-4 2.21 µM | UO-31 13.7 µM | A498 4.12 µM

CCCCCCCCCCCC(=O)OCCOCCOCCOCCOCCOC(=O)CCCCCCCCCCC
inactive: CAKI-1 > 100 µM | UACC-257 > 100 µM | SNB-19 > 100 µM | M19-MEL > 100 µM | U-251 > 100 µM | UACC-62 56.2 µM | SK-MEL-5 > 100 µM | RPMI-8226 > 100 µM | OVCAR-4 > 100 µM | HL-60 37.6 µM | A549 > 100 µM | EKVX > 100 µM | IGROV-1 > 100 µM | OVCAR-3 > 100 µM | MOLT-4 > 100 µM | UO-31 > 100 µM | A498 > 100 µM

CCc1cccc(CC)c1NC(=O)CC1SC(N)=NC1=O (stereo not given)
inactive: UACC-257 > 100 µM | SNB-19 > 100 µM | M19-MEL > 100 µM | U-251 > 100 µM | UACC-62 > 100 µM | SK-MEL-5 > 100 µM | RPMI-8226 > 100 µM | OVCAR-4 > 100 µM | HL-60 > 100 µM | A549 > 100 µM | SF-539 > 100 µM | EKVX > 100 µM | IGROV-1 > 100 µM | OVCAR-3 > 100 µM | MOLT-4 > 100 µM | UO-31 > 100 µM | A498 > 100 µM

CCOC(=O)Cc1csc(Nc2ccc(OCC)cc2)n1
inactive: UACC-257 > 100 µM | SNB-19 > 100 µM | M19-MEL > 100 µM | U-251 > 100 µM | RPMI-8226 > 100 µM | OVCAR-4 > 100 µM | HL-60 > 100 µM | A549 > 100 µM | SF-539 > 100 µM | EKVX > 100 µM | IGROV-1 > 100 µM | OVCAR-3 86.3 µM | MOLT-4 61.8 µM | UO-31 > 100 µM | A498 > 100 µM
